Laboratory results reported in patent publication US5166208A, “Fredericamycin A derivatives” (Boston College, priority 1991, dated 1992).
Converted amounts (≈) assume the structure as drawn. Structures can show the parent of a compound that is named as a salt.

Key:
[1] = system: human colon tumor (HCT116); experiment: In vitro microdilution inhibition, HCT116; type: cell-based; details: HCT-116, 72 hours, 50% of cells killed
Source text: (§1) As shown in Table III the compounds of the present invention exert an in vitro antitumor effect. The following cells lines were employed: human lung (A549); resistant human lung with low topo II activity (A549-VP); murine melanoma (B16); human colon tumor (HCT116); human colon tumor with elevated p170 levels (HCTVM); human colon tumor with low topo II activity (HCTVP); and another human colon carcinoma cell line (Moser). In the Table, the designation "NT" indicates the compound was not tested against the specified cell line. The cell lines were maintained in continuous culture at 37°, 5% CO2 and high humidity. Cells were harvested in log phase growth and suspended at concentration of 25,000 cells/mL. A […] aliquot was then added to each well (i.e., 3,750 cells per well) of a 96-well flat bottom plate and the cells were allowed to attach over a 24 hour period. After this 24 hour incubation, a 50 μL sample of the specified compound was added to the first (top) well of each column, and the remaining wells of each column serially diluted, 1:4, and allowed to incubate for 72 hours at 37° C., 5% CO2 and high humidity. Following incubation, 50 μL of freshly prepared stain solution was added to each well. After a 3 hour incubation at room temperature, absorbance was read at 450 nm on a microplate reader to determine the compound concentration at which 50% of the cells were killed, such concentration referred to as the "IC50 ".

[2] = system: murine melanoma (B16); experiment: In vitro microdilution inhibition, B16; type: cell-based; details: Mus musculus; B16, 72 hours, 50% of cells killed
Source text: as §1

[3] = system: human colon carcinoma cell line (Moser); experiment: In vitro microdilution inhibition, Moser; type: cell-based; details: 72 hours, 50% of cells killed
Source text: as §1

[4] = system: human lung (A549); experiment: In vitro microdilution inhibition, human lung A549; type: cell-based; details: A549, 72 hours, 50% of cells killed
Source text: as §1

[5] = system: human colon tumor with low topo II activity (HCTVP); experiment: In vitro microdilution inhibition, HCTVP; type: cell-based; details: 72 hours, 50% of cells killed
Source text: as §1

[6] = system: p388 murine leukemia; experiment: In vivo activity against p388 murine leukemia in an acute mouse model; details: for AWC (average weight change per mouse): before treatment to day five
Procedure: CDF1 mice of both sexes weighing between 16 and 25 gm. were used, with a 2 gm. weight range and same sex and source used per experiment. BDF1 mice also were used with the same weight, sex and source parameters. Control and test animals were injected interperitoneally with suspension of 1×10^6 p388 murine leukemia cells (0.5 mL dose) on day 0. Groups of 4-6 mice were used for each dosage amount they were treated with 5 doses on day one. A group of ten saline treated control mice was included in each set of experiments. A 30 day protocol was employed with mean survival time in days being determined for each group of mice with the number of survivors at the end of the 30 day period being noted. The mice were weighed before treatment and again on day five. The values listed for average weight change (AWC) is the average weight change per mouse at the specified dose. The change in weight was taken as a measure of drug toxicity. A loss in weight of up to 2 grams is not considered excessive. The results were determined in terms of % T/C which is the ratio of the mean survival time of the treated group to the mean survival time of the saline treated group times 100.

[7] = system: human colon tumor with elevated p170 levels (HCTVM); experiment: In vitro microdilution inhibition, HCTVM; type: cell-based; details: 72 hours, 50% of cells killed
Source text: as §1

[8] = system: resistant human lung with low topo II activity (A549-VP); experiment: In vitro microdilution inhibition, resistant human lung A549-VP; type: cell-based; details: A549VP, 72 hours, 50% of cells killed
Source text: as §1

[9] = Mus musculus, P388, 720 h, CDF1 (mixed sex), 5 mg/kg, read-out: % T/C (mean survival time treated/control)
[10] = Mus musculus, P388, 720 h, CDF1 (mixed sex), 15 mg/kg, read-out: % T/C (mean survival time treated/control)
[11] = Mus musculus, P388, 720 h, CDF1 (female only), 4 mg/kg, read-out: % T/C (mean survival time treated/control)
[12] = Mus musculus, P388, 720 h, CDF1 (female only), 12 mg/kg, read-out: % T/C (mean survival time treated/control)
[13] = Mus musculus, P388, 720 h, CDF1 (female only), 36 mg/kg, read-out: % T/C (mean survival time treated/control)

SMILES | IC50 [1] [µg/mL] | IC50 [2] [µg/mL] | IC50 [4] [µg/mL] | IC50 [5] [µg/mL] | IC50 [7] [µg/mL] | IC50 [8] [µg/mL] | also measured
CCOC(OCC)c1cc2cc3c(c(OCOC)c2c(OC)n1)C1(CC3)C(=O)c2c(O)c3c(c(O)c2C1=O)C(=O)C=CC3=O [Example 9, 6',7'-Dihydro-1-methoxy-9'-(methoxymethoxy-3-(diethoxymethyl)-spiro[2H-benz[f]indene-2,8'-8H]cyclopent[g]isoquinoline]-1,3,5,8-tetrone] | 0.71 (≈ 1.18 µM) | 0.78 (≈ 1.29 µM) | 4.42 (≈ 7.32 µM) | 2.38 (≈ 3.94 µM) |  |  | IC50 [3]: 4.4 µg/mL (≈ 7.29 µM)
COCOc1cccc2c1C1(CC2)C(=O)c2c(O)c3c(c(O)c2C1=O)C(=O)C=CC3=O [Example 2, 2',3'-Dihydro-7'-(methoxymethoxy)-1H-indene-1'-spiro-2-[4,9-dihydroxy-2H-benz[f]indene-1,3,5,8-tetrone]] | 0.25 (≈ 0.595 µM) | 0.14 (≈ 0.333 µM) | 0.36 (≈ 0.856 µM) | 0.29 (≈ 0.69 µM) |  |  | AWC (average weight change per mouse) ([6]; CDF1 (mixed sex), 5 mg/kg): -0.1; AWC (average weight change per mouse) ([6]; CDF1 (mixed sex), 15 mg/kg): -1.3; % T/C (mean survival time treated/control) ([6]; CDF1 (mixed sex), 45 mg/kg): Toxic; response vs control in vivo at 5 mg/kg [6, 9]: 105%; response vs control in vivo at 15 mg/kg [6, 10]: 110%; IC50 [3]: 1.07 µg/mL (≈ 2.55 µM)
CCNC1=CC(=O)c2c(O)c3c(c(O)c2C1=O)C(=O)C1(CCc2cccc(O)c21)C3=O (stereo not shown) [Example 15, 2',3'-Dihydro-6-ethylamino-7'-hydroxy-1H-indene-1'-spiro-2-[4,9-dihydroxy-2H-benz[f]-indene-1,3,5,8-tetrone]] | 0.03 (≈ 0.0715 µM) | 0.03 (≈ 0.0715 µM) | < 0.03 | 0.05 (≈ 0.119 µM) | 0.03 (≈ 0.0715 µM) | 0.05 (≈ 0.119 µM) | AWC (average weight change per mouse) ([6]; CDF1 (mixed sex), 5 mg/kg): -0.1; AWC (average weight change per mouse) ([6]; CDF1 (mixed sex), 15 mg/kg): -0.2; % T/C (mean survival time treated/control) ([6]; CDF1 (mixed sex), 45 mg/kg): Toxic; response vs control in vivo at 5 mg/kg [6, 9]: 100%; response vs control in vivo at 15 mg/kg [6, 10]: 115%
O=C1C=CC(=O)c2c(O)c3c(c(O)c21)C(=O)C1(CCc2cccc(O)c21)C3=O [Example 3, 2',3'-Dihydro-7'-hydroxy-1H-indene-1'-spiro-2-[4,9-dihydroxy-benz[f]indene-1,3,5,8-tetrone]] | 1.13 (≈ 3 µM) | 0.88 (≈ 2.34 µM) | 1.14 (≈ 3.03 µM) | 0.86 (≈ 2.29 µM) |  |  | IC50 [3]: 3.07 µg/mL (≈ 8.16 µM)
COCOc1cccc2c1C1(CC2)C(=O)c2c(O)c3c(c(O)c2C1=O)C(=O)C(NCCO)=CC3=O (stereo not shown) [Example 16, 2',3'-Dihydro-7'-(methoxymethoxy)-1H-indene-1'-spiro-[4,9-dihydroxy-6-(2-hydroxyethylamino)-2H-benz[f]indene-1,3,5,8-tetrone]] | 0.05 (≈ 0.104 µM) | 0.03 (≈ 0.0626 µM) | < 0.03 | 0.04 (≈ 0.0834 µM) | 0.06 (≈ 0.125 µM) | 0.04 (≈ 0.0834 µM) | AWC (average weight change per mouse) ([6]; CDF1 (female only), 3.3 mg/kg): -0.1; AWC (average weight change per mouse) ([6]; CDF1 (female only), 10 mg/kg): -1.1; AWC (average weight change per mouse) ([6]; CDF1 (female only), 30 mg/kg): -2.6; response vs control in vivo at 3.3 mg/kg ([6]; Mus musculus, P388, 720 h, CDF1 (female only), 3.3 mg/kg, read-out: % T/C (mean survival time treated/control)): 95%; response vs control in vivo at 10 mg/kg ([6]; Mus musculus, P388, 720 h, CDF1 (female only), 10 mg/kg, read-out: % T/C (mean survival time treated/control)): 95%; response vs control in vivo at 30 mg/kg ([6]; Mus musculus, P388, 720 h, CDF1 (female only), 30 mg/kg, read-out: % T/C (mean survival time treated/control)): 130%
COCOc1cccc2c1C1(CC2)C(=O)c2c(O)c3c(c(O)c2C1=O)C(=O)C(N)=CC3=O (stereo not shown) [Example 14, 6-amino-2',3'-dihydro-7'-(methoxymethoxy)-1H-indene-1'-spiro-2-[4,9-dihydroxy-2H-benz[f]-indene-1,3,5,8-tetrone]] | 0.03 (≈ 0.0689 µM) | 0.03 (≈ 0.0689 µM) | < 0.03 | 0.03 (≈ 0.0689 µM) | 0.03 (≈ 0.0689 µM) | 0.03 (≈ 0.0689 µM) | 
COCOc1cccc2c1C1(CC2)C(=O)c2c(O)c3c(c(O)c2C1=O)C(=O)C(Sc1ccccc1)=C(Sc1ccccc1)C3=O [Example 31, 2',3'-Dihydro-7'-(methoxymethoxy)-1H-indene-1'-spiro-2-[6,7-di(phenylmercapto)-4,9-dihydroxy-2H-benz[f]indene-I,3,5,8-tetrone]] | > 16 | > 16 | > 16 | > 16 | > 16 | > 16 | 
CCCCCc1cc2cc3c(c(O)c2c(=O)[nH]1)C1(CC3)C(=O)c2c(O)c3c(c(O)c2C1=O)C(=O)C(NCCN(C)C)=CC3=O (stereo not shown) [Example 25, hydrochloride] | 0.27 | 0.14 | 0.14 | 0.13 | 0.22 | 0.16 | AWC (average weight change per mouse) ([6]; CDF1 (female only), 4 mg/kg): 0.9; AWC (average weight change per mouse) ([6]; CDF1 (female only), 12 mg/kg): -0.7; AWC (average weight change per mouse) ([6]; CDF1 (female only), 36 mg/kg): -1.6; response vs control in vivo at 4 mg/kg [6, 11]: 125%; response vs control in vivo at 12 mg/kg [6, 12]: 105%; response vs control in vivo at 36 mg/kg [6, 13]: 120%
CCCCCc1cc2cc3c(c(O)c2c(=O)[nH]1)C1(CC3)C(=O)c2c(O)c3c(c(O)c2C1=O)C(=O)C(NCC)=CC3=O (stereo not shown) [Example 23, 2',6'7'-trihydro-4,9,9'-trihydroxy-3'-(n-pentyl)-6-ethylamino-spiro[2H-benz[f]-indene-2,8'-[8H]cyclopent[g]-isoquinoline]-1,1',3,5,8-pentone] | 0.28 (≈ 0.503 µM) | 0.39 (≈ 0.701 µM) | 0.14 (≈ 0.252 µM) | 0.1 (≈ 0.18 µM) | 0.22 (≈ 0.395 µM) | 0.1 (≈ 0.18 µM) | AWC (average weight change per mouse) ([6]; CDF1 (female only), 4 mg/kg): 1.8; AWC (average weight change per mouse) ([6]; CDF1 (female only), 12 mg/kg): 1.7; AWC (average weight change per mouse) ([6]; CDF1 (female only), 36 mg/kg): 0.7; response vs control in vivo at 4 mg/kg [6, 11]: 100%; response vs control in vivo at 12 mg/kg [6, 12]: 95%; response vs control in vivo at 36 mg/kg [6, 13]: 100%
COCOc1cccc2c1C1(CC2)C(=O)c2c(O)c3c(c(O)c2C1=O)C(=O)C(Nc1ccccc1)=CC3=O (stereo not shown) [Example 18, 2',3'-Dihydro-7'-(methoxymethoxy)-1H-indene-1,-spiro-2-[6-(phenylamino)-4,9-dihydroxy-2H-benz[f]indene-1,3,5,8-tetrone]] | 0.09 (≈ 0.176 µM) | 0.08 (≈ 0.156 µM) | 0.08 (≈ 0.156 µM) | 0.07 (≈ 0.137 µM) | 0.11 (≈ 0.215 µM) | 0.06 (≈ 0.117 µM) | 
CN(C)CCNC1=CC(=O)c2c(O)c3c(c(O)c2C1=O)C(=O)C1(CCc2cccc(O)c21)C3=O (stereo not shown) [Example 24, hydrochloride] | 0.2 | 0.4 | 0.5 | 1.1 | 0.7 | 1.4 | AWC (average weight change per mouse) ([6]; CDF1 (mixed sex), 5 mg/kg): -0.3; AWC (average weight change per mouse) ([6]; CDF1 (mixed sex), 15 mg/kg): -0.3; AWC (average weight change per mouse) ([6]; CDF1 (mixed sex), 45 mg/kg): -0.9; response vs control in vivo at 5 mg/kg [6, 9]: 110%; response vs control in vivo at 15 mg/kg [6, 10]: 110%; response vs control in vivo at 45 mg/kg ([6]; Mus musculus, P388, 720 h, CDF1 (mixed sex), 45 mg/kg, read-out: % T/C (mean survival time treated/control)): 120%
